PubChem BioAssay (NCI)
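In this assay, cells in 96-well plates receive the compound at five concentrations for 48 hours. Endpoints are linearly interpolated between the surrounding concentrations. TGI marks complete inhibition of growth.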

Key:
Experiment in all cases: NCI tumour cell line growth inhibition, 48 h
A498 renal = tested on: A498 renal
CAKI-1 renal = tested on: CAKI-1 renal
HCC-2998 colon = tested on: HCC-2998 colon
HCT-15 colon = tested on: HCT-15 colon
HL-60(TB) leukemia = tested on: HL-60(TB) leukemia
HOP-18 NSCLC = tested on: HOP-18 NSCLC
HOP-92 NSCLC = tested on: HOP-92 NSCLC
IGROV1 ovarian = tested on: IGROV1 ovarian
KM12 colon = tested on: KM12 colon
NCI-H226 lung = tested on: NCI-H226 lung
OVCAR-4 ovarian = tested on: OVCAR-4 ovarian
OVCAR-5 ovarian = tested on: OVCAR-5 ovarian
OVCAR-8 ovarian = tested on: OVCAR-8 ovarian
P388 leukemia = tested on: P388 leukemia
P388/ADR leukemia = tested on: P388/ADR leukemia
SF-539 CNS = tested on: SF-539 CNS
SK-MEL-2 melanoma = tested on: SK-MEL-2 melanoma
SK-OV-3 ovarian = tested on: SK-OV-3 ovarian
SNB-75 CNS = tested on: SNB-75 CNS
SW-620 colon = tested on: SW-620 colon

Structure (SMILES) | TGI (A498 renal) | TGI (CAKI-1 renal) | TGI (HCC-2998 colon) | TGI (HCT-15 colon) | TGI (HL-60(TB) leukemia) | TGI (HOP-18 NSCLC) | TGI (HOP-92 NSCLC) | TGI (IGROV1 ovarian) | TGI (KM12 colon) | TGI (NCI-H226 lung) | TGI (OVCAR-4 ovarian) | TGI (OVCAR-5 ovarian) | TGI (OVCAR-8 ovarian) | TGI (P388 leukemia) | TGI (P388/ADR leukemia) | TGI (SF-539 CNS) | TGI (SK-MEL-2 melanoma) | TGI (SK-OV-3 ovarian) | TGI (SNB-75 CNS) | TGI (SW-620 colon)
CCN(CC)CCCOC(=O)/C=C/c1c(C)[nH]c(=O)[nH]c1=O | > 412 µM | > 625 µM | > 625 µM | > 625 µM | > 625 µM | > 625 µM | > 625 µM | > 625 µM | > 625 µM | > 625 µM | > 394 µM | > 625 µM | > 625 µM | > 625 µM | > 394 µM | > 625 µM | > 394 µM | > 625 µM | > 625 µM | > 625 µM
Cc1c2c(cc3c1[nH]c1ccccc13)C=NCC2 | 40.3 µM | 31.6 µM | 46.8 µM | 61.8 µM | 27.8 µM |  | 16.4 µM | 49.5 µM | 27.8 µM | 50.2 µM | 53 µM | 61 µM | 36.4 µM | 17.6 µM | 53.1 µM | 11.9 µM | 21.1 µM | 97.2 µM | 39.5 µM | 27.6 µM
CCCCCCCCCCCCCCCCSCC(COC)COP(=O)([O-])OCC[N+](C)(C)C (stereo not drawn) | 19.1 µM | 12.7 µM | 3.56 µM | 10.3 µM | 4.4 µM | 16.5 µM | 5.18 µM | 4.77 µM | 2.45 µM | 9.24 µM | 15.3 µM | 26 µM | 22.3 µM | 5.26 µM | 15.2 µM | 29.7 µM | 29.6 µM | 28.6 µM | 14.3 µM | 17.7 µM
Nc1nc2c(c(=O)[nH]1)N(C=O)C(CNc1ccc(C(=O)N[C@@H](CCC(=O)O)C(=O)O)cc1)CN2 (stereo partly drawn) |  | > 125 µM | > 125 µM | > 125 µM | > 31.4 µM | > 125 µM | > 125 µM | > 125 µM | > 125 µM | > 125 µM | > 125 µM | > 125 µM | > 125 µM | > 125 µM | > 125 µM | > 125 µM | 49.1 µM | > 125 µM | > 125 µM | > 125 µM
C/C(=N\NS(=O)(=O)c1ccccc1)c1ccccc1 | > 100 µM | > 100 µM | > 100 µM | > 100 µM | > 100 µM | > 100 µM | > 100 µM | > 100 µM | > 100 µM | > 100 µM | > 100 µM | > 100 µM | > 100 µM | > 100 µM | > 100 µM | > 100 µM | > 100 µM | > 100 µM | > 100 µM | > 100 µM
C=C1C[C@@H](O)C[C@@]2(C)C[C@@H]3OC(=O)C(=C)[C@@H]3C[C@H]12 | 36.8 µM | 14.1 µM | 14.2 µM | 18.2 µM | 5.94 µM | 15.9 µM | 28.1 µM | 28.8 µM | 28.6 µM | 37.7 µM | 31.4 µM | 28 µM | 46.6 µM | 8.87 µM | 31.8 µM | 23.1 µM | 39.3 µM | > 81.9 µM | > 35.5 µM | 18.1 µM
O=C(CC/C=C(/CS(=O)(=O)c1ccccc1)S(=O)(=O)c1ccccc1)c1ccccc1 | > 100 µM |  | > 100 µM | > 100 µM | > 100 µM | > 100 µM | > 100 µM | > 100 µM | > 100 µM | > 100 µM | > 100 µM | > 100 µM | > 100 µM |  |  | > 100 µM | > 100 µM | > 100 µM | > 100 µM | > 100 µM
Cc1cc(O)c2c(c1O)C(=O)C13C(=C2O)C(=O)C2C(O)C1C1C(O)C3C(=O)C3=C(O)c4c(O)cc(C)c(O)c4C(=O)C321 (stereo not drawn) | 0.253 µM | 0.696 µM | 0.329 µM | 0.182 µM |  | 1.17 µM |  | 2.06 µM | 10.7 µM | 0.879 µM | 7.24 µM | 9.41 µM | 1.59 µM |  | 0.144 µM | 0.278 µM | 0.468 µM | 0.319 µM | 0.841 µM | 0.313 µM
CC(=O)NCCC1CN(C(=O)/C=C\C#C[Si](C)(C)C)c2ccccc21 (stereo not drawn) | > 100 µM | 33.2 µM | 43.2 µM | 48.9 µM | 81.3 µM |  | > 100 µM | 30.8 µM | > 100 µM | 46 µM | 63.3 µM | 33.7 µM | > 100 µM |  |  | 73.8 µM | 37.8 µM | > 100 µM |  | > 100 µM
